Earlier results as cited in US10946025B2, “Compounds” (Glaxo Group Limited, priority 2009, dated 2021).

How the values were obtained:
[1] = tested on: neutrophil; conditions: background literature; for superoxide release: neutrophils
[2] = tested on: neutrophils; conditions: treatment of neutrophils; Thelen et al. 1994

SMILES: O=c1cc(N2CCOCC2)oc2c(-c3ccccc3)cccc12 [LY294002]
- neutrophil migration [1]: block
- superoxide release [1]: block

SMILES: COC[C@H]1OC(=O)c2coc3c2[C@@]1(C)C1=C(C3=O)[C@@H]2CCC(=O)[C@@]2(C)C[C@H]1OC(C)=O [wortmannin]
- neutrophil migration [1]: block
- superoxide release [1]: block
- fMLP-induced respiratory burst response [2]: prevents
